Results on eleven compounds are retold here after US20220193047A1, “METHODS OF ENHANCING RADIOTHERAPY USING FERROPTOSIS INDUCERS AS RADIOSENSITIZERS” (THE TRUSTEES OF COLUMBIA UNIVERSITY IN THE CITY OF NEW YORK, priority 2019, published 2022).

The test system of assay [1] is HT-1080 cells. The assay is described as follows: Clonogenic assay with Cs-137 gamma radiation, HT-1080. The assay is classed as cell-based. Further details: key to CDI with radiation: CDI = AB/(A×B) of surviving fractions; <1 synergy. Particulars: for Colony formation after radiation alone: HT-1080, 2 or 4 Gy radiation, no ferroptosis inducer; for Enhancement of radiation effect on clonogenic survival: HT-1080, cell death inducer plus radiation; for CDI with 4 Gy IR / CDI with 2 Gy IR: HT-1080 cells, CDI<1 synergy; for CDI with 2 Gy IR: inducer concentration (300 nM IKE, 20 nM RSL3, 1 nM staurosporine, 2 nM doxorubicin, 300 nM rapamycin, 100 ng/mL TNF + 20 μM Z-VAD-FMK + 300 nM birinapant); for CDI with radiation: 5 μM sorafenib, HT-1080. As for the experimental part: 500 cells were seeded per well in 6-well plates in their respective growth media and incubated overnight. The next day, cells were co-treated with DMSO or compounds and radiation using a Gammacell 40 Caesium-137 irradiator (Theratronics). Plates were monitored every day using a light microscope for formation of colonies in the DMSO-treated wells. When colonies of >50 cells are clearly visible, the growth medium was discarded from all plates. The cells were washed with PBS, then fixed and stained with crystal violet solution (0.05% crystal violet, 1% formaldehyde, 1% methanol in PBS). Colonies were then directly visualized and counted.
We tested their ability to prevent clonogenic growth, along with DMSO-treated controls.
The coefficient of drug interaction (CDI), used to compute interaction between two drugs, was used to quantify synergy between cell death inducers and radiation according to the formula CDI=AB/(A×B), where AB is the surviving fraction of the combination treatment, and A and B are the surviving fractions of the individual treatments.

Assay [2] has as its system models of glioma, melanoma, and breast cancer. Particulars: Cobler et al., 2018, Nagane et al., Sleire et al., 2015; cited from earlier work.
Assay [3] has as its system cleaved caspase-3. The assay can be described thus: Western blot of cleaved caspase-3. The assay is classed as cell-based. On the procedure: 1 million cells were seeded in 10 cm dishes and treated with compounds and/or radiation on the next day. […] After quantification by Bradford, samples were mixed with 5×SDS loading buffer and separated by SDS-polyacrylamide gel electrophoresis. After transfer, membranes were blocked for 10 min in Tris-buffered saline (pH 7.4) with 1% Tween-20 (TBS-T) with 5% milk and incubated in primary antibody overnight at 4° C. Following 3× for 5 min washes in TBS-T, the membrane was incubated with secondary antibodies for 1 hr. The membrane was washed again in TBST 3× for 5 min prior to visualization using enhanced chemiluminescence (ECL Western Blotting Substrate, Pierce). Antibody for cleaved caspase 3 (Cell Signaling Technology, #9661) was used at 1:1000 and detected using a Peroxidase AffiniPure Goat Anti-Rabbit IgG (H+L) (Jackson ImmunoResearch, 111-295-144) at 1:5000 dilution.
DNA damage is a potent inducer of apoptosis. […] Despite this, some quantity of 17-kDa cleaved caspase-3 was still detectable in the Z-VAD-FMK-treated sample. To further check for potential radiation-induced apoptosis in this model at a later time point, we attempted to rescue the effects of radiation using 100 μM Z-VAD-FMK after 48, 72, and 96 h (FIG. 10).

Assay [4] deals with HT-1080 cells. The assay can be described thus: Cell Titer Glo cell viability assay with radiation. The assay is classed as cell-based. As to conditions: for Cell viability after radiation (ATP-based luciferase assay): HT-1080, 4 Gy radiation for 24 h. On the procedure: HT-1080 cells were plated at 1,000 cells per well in white 96-well plates (100 uL per well) in technical duplicates. The cells were then treated with vehicle (DMSO), Ferrostatin-1, DFO, Z-VAD-FMK or Necrostatin-1S and incubated overnight. […] After another 24 h, 100 uL of 50% Cell Titer Glo (Promega) 50% cell culture medium was added to each well and incubated at room temperature with shaking for 15 min. Luminescence was measured using a Victor X5 plate reader (PerkinElmer). Experiments were performed three independent times with different passages for each cell line.
(In general: In ATP-based viability assays light output follows the ATP content of the culture.)

The subject of assay [5] is reduced glutathione (GSH) in HT-1080 cells. The assay can be described thus: Reduced glutathione measurement in cells. It counts as cell-based. Particulars: HT-1080, 6 Gy radiation for 24 hours, vs DMSO, sorafenib alone or radiation alone. As for the experimental part: Cystine taken up by system xc^− is reduced to cysteine, a building block in the biosynthesis of glutathione. […] Using a fluorometric GSH probe, we observed that treatment with 2 or 6 Gy radiation for 24 hours depleted GSH in a dose-dependent manner in HT-1080 cells (FIG. 2E). […] Indeed, the decrease in colony formation of HT-1080 cells following 2 or 4 Gy radiation was rescued by either glutathione methyl ester or N-acetylcysteine, which is a biological precursor to glutathione (FIG. 9).

For assay [6], the system named is HT-1080 xenograft tumors. The assay can be described thus: HT-1080 tumor xenograft study in mice. Particulars: 40 mg/kg i.p. daily for 14 days.
Method: The injections were repeated daily for 14 days. […] For the sorafenib experiment, the formulation used was 40 mg/kg sorafenib in 5% DMSO, 20% ethanol in water containing 30% w/v cyclodextrin. […] Tumor size was measured daily using calipers and mouse weight was measured daily.
The efficacy of the combined treatment regimen of radiation and ferroptosis inducer was evaluated in an in vivo tumor model. […] Athymic nude mice were implanted with subcutaneous HT-1080 fibrosarcoma cells to form xenograft tumors.
Assay [7] deals with GSH in HT-1080 xenograft tumors. The assay is described as follows: Reduced glutathione in xenograft tumor tissue.
Method: The cell pellet was resuspended in 100 μl of RIPA buffer and homogenized by pipetting. The lysate was centrifuged at 16,700×g at 4° C. for 15 min, and cleared lysate was used to determine the amount of GSH in the sample. We used the GSH/GSSG ratio detection assay kit (Abcam, #ab138881) and followed the product instructions to determine GSH levels.
The injections were repeated daily for 14 days. […] Tumor size was measured daily using calipers and mouse weight was measured daily. The animal protocols containing all the procedures were approved by Columbia University's IACUC.
Assay [8] relates to TM00219 patient-derived xenograft tumors. The assay can be described thus: Patient-derived xenograft study in mice (TM00219 lung adenocarcinoma). It counts as in vivo. As to conditions: 40 mg/kg i.p. daily for 14 days, NSG mice. As for the experimental part: The experiment was conducted according to the same protocol as the HT-1080 tumor xenograft study, with the exception that a single dose of radiation (sham or 6 Gy) was delivered to the tumor on day 1 of the experiment.
Finally, the effect of ferroptosis-inducing system xc^− inhibitors, in combination with radiation, was tested on a patient-derived xenograft (PDX) model of lung adenocarcinoma, which is another type of cancer commonly treated with radiation therapy. NSG mice engrafted with a human lung adenocarcinoma tumor (TM00219) were evaluated.
In general terms: In xenograft studies the graft and the host belong to different species.

* marks the point of attachment. Cbz = O=C(OCc1ccccc1)*; CH2F = FC*

As for `Cc1c(C)c2c(c(C)c1O)CCC(C)(C(=O)O)O2` (stereo not drawn) [trolox], in assay [1], the “Colony formation after radiation alone” value was “partially rescued cell death induced by radiation alone”. For the same compound, the “Synergy between IKE or RSL3 and radiation in colony formation” value in assay [1] (HT-1080, co-treatment with ferroptosis inhibitor) is recorded as “suppress the synergy”.

For `O=C(O)c1cc(/N=N/c2ccc(S(=O)(=O)Nc3ccccn3)cc2)ccc1O` [sulfasalazine], the “Potentiation of radiation (prior reports)” value in assay [2] is on record as “potentiate radiation”.

For the compound `CN[C@@H]1C[C@H]2O[C@@](C)([C@@H]1OC)n1c3ccccc3c3c4c(c5c6ccccc6n2c5c31)C(=O)NC4` [staurosporine], the “Cleavage of caspase-3, compound alone” value in assay [3] (HT-1080, IKE or RSL3 24 h, staurosporine 500 nM for 6 h) was “induced cell death along with levels of caspase-3 cleavage”. For the same compound, in assay [1], the “Enhancement of radiation effect on clonogenic survival” value was “only slightly enhancing radiation-induced cell death”, the “CDI with 4 Gy IR” value was determined as 0.83 and the “CDI with 2 Gy IR” value amounted to 1.1.

As to `CC(=O)N[C@@H](CS)C(=O)O` [N-acetylcysteine], the “Colony formation after radiation alone” value in assay [1] is on record as “rescued”.

For the compound `COc1cccc2c1C(=O)c1c(O)c3c(c(O)c1C2=O)C[C@@](O)(C(=O)CO)C[C@@H]3O[C@H]1C[C@H](N)[C@H](O)[C@H](C)O1` [doxorubicin], in assay [1], the “Enhancement of radiation effect on clonogenic survival” value is on record as “only slightly enhancing radiation-induced cell death”, the “CDI with 4 Gy IR” value stood at 0.9 and the “CDI with 2 Gy IR” value is given as 1.07.

`COC(=O)CNC(=O)[C@H](CS)NC(=O)CC[C@H](N)C(=O)O` [glutathione methyl ester]: the “Colony formation after radiation alone” value in assay [1] is recorded as “rescued”.

In the case of `Cn1cnc(N)c2ncnc1-2` [3-methyladenine], the “Cell viability after radiation (ATP-based luciferase assay)” value in assay [4] is on record as “also rescued cells”.

Consider `CO[C@H]1C[C@@H]2CC[C@@H](C)[C@@](O)(O2)C(=O)C(=O)N2CCCC[C@H]2C(=O)O[C@H]([C@H](C)C[C@@H]2CC[C@@H](O)[C@H](OC)C2)CC(=O)[C@H](C)/C=C(\C)[C@@H](O)[C@@H](OC)C(=O)[C@H](C)C[C@H](C)/C=C/C=C/C=C/1C` [rapamycin], for which, in assay [1], the “CDI with 4 Gy IR” value amounted to 0.62 and the “CDI with 2 Gy IR” value amounted to 0.89.

Regarding Cbz-Val-Ala-Asp-CH2F, the Staurosporine-induced cell death result in assay [3] (HT-1080, 500 nM staurosporine plus 100 μM Z-VAD-FMK) was “rescued from staurosporine-induced cell death”. Moreover, the “Rescue of cell viability after radiation at later time points” value in assay [4] (HT-1080, 100 μM Z-VAD-FMK, 48, 72, and 96 h) is recorded as “no significant rescue of cell viability”. Besides, the “Cell viability after radiation (ATP-based luciferase assay)” value in assay [4] is “not”.

`CNC(=O)c1cc(Oc2ccc(NC(=O)Nc3ccc(Cl)c(C(F)(F)F)c3)cc2)ccn1` [sorafenib]: the “Levels of GSH, sorafenib plus radiation” value in assay [5] is “significant depletion of GSH”. The CDI with radiation is reported as 0.65 in assay [1] (2 Gy) and 0.47 in assay [1] (4 Gy). Moreover, in assay [6], the “Tumor volume, sorafenib alone vs control” value is “No difference was observed”. Moreover, the “GSH in tumor tissue, sorafenib vs vehicle” value in assay [7] (40 mg/kg sorafenib i.p. 14 days) is “significantly lower GSH”. Further, the “GSH in tumor tissue, dual-treated” value in assay [7] (40 mg/kg sorafenib i.p. 14 days plus 6 Gy on days 1 and 3) was “further significant GSH depletion”. In assay [8] (6 Gy on day one), the “Tumor growth, combination with radiation vs all other groups” value is “significant tumor growth inhibition”. For the same compound, the “Tumor growth, drug alone vs vehicle only” value in assay [8] was “significant tumor control”.

Consider `CN1C(=O)NC(Cc2c[nH]c3c(Cl)cccc23)C1=O` (stereo not drawn) [necrostatin-1S], for which the “Cell viability after radiation (ATP-based luciferase assay)” value in assay [4] is “not”.
